Entries after “also recorded” stand apart in the source; their conditions may differ.
Columns and labels:
hSK1 = hSK1 (Homo sapiens, UniProt Q92952); assay: Automated patch clamp (QPatch 16), whole cell, stable HEK293 cell line expressing hSK1; assay type: cell-based; conditions: HEK stable line, 400 nM free intracellular calcium, mean ± SEM, n = 9
Description: Three different stable HEK293 cell lines expressing hSK1, hSK2 or hSK3 (NeuroSearch A/S, Ballerup, Denmark) and a CHO stable cell line expressing hERG (University of Copenhagen, Copenhagen, Denmark) were used for automated patch clamp. These cells were cultivated and prepared as previously described (Skarsfeldt et al., [2016]).
Automated patch clamp (QPatch 16, Sophion, Denmark) on SK-expressing HEK293 cell lines was conducted as previously described (Simó-Vicens et al., [2017b]). Briefly, SK currents were elicited by voltage-ramps starting at −80 mV and finishing at +80 mV from a holding potential of 0 mV. Extracellular solution contained 0.1 mM CaCl2, 3 mM MgCl2, 154 mM KCl, 10 mM HEPES and 10 mM glucose with pH 7.4. Intracellular solution for SK experiments contained 8.106 mM CaCl2 (final free calcium concentration of 400 nM), 1.167 mM MgCl2, 10 mM EGTA, 154 mM KCl, 10 mM HEPES, 31.25/ 10 mM KOH/EGTA and 15 mM KOH with pH 7.2. Automated patch clamp on hERG-expressing CHO cell line was performed also as previously described (Skarsfeldt et al., [2016]).
Individual IC50 values were calculated for each cell with the built-in nonlinear fit log(inhibitor) vs. normalized response equation:
Where Y is the normalized response, from 100, corresponding to current recorded during saline perfusion, down to 0, corresponding to currents recorded in the presence of bicuculline methiodide 100 μM. […]

Kv1.5 = Kv1.5 (Homo sapiens, UniProt P22460); assay: Two-electrode voltage clamp in Xenopus laevis oocytes, Kv1.5; assay type: cell-based; conditions: BBP 10 μM, TEVC, n = 5
Sequence of Kv1.5 (P22460 whole entry, the tested form may be a part): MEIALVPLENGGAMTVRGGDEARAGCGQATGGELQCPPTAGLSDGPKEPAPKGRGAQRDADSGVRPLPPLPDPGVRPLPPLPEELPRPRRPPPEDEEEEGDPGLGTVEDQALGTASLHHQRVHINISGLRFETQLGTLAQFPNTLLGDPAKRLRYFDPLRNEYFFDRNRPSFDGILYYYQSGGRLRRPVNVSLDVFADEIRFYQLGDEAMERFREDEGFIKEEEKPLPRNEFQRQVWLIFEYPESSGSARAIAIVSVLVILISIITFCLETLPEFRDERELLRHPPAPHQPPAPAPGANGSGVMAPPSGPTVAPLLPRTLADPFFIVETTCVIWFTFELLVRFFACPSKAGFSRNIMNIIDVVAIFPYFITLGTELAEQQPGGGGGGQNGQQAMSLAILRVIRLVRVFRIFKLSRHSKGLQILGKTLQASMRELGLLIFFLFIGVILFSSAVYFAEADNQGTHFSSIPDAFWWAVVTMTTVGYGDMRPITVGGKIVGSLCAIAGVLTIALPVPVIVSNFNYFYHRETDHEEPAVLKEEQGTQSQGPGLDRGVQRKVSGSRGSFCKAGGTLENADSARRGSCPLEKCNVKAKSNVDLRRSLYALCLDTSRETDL
Description: cRNA was prepared from linearized plasmids using the mMESSAGE mMACHINE T7 kit (Ambion, USA) and quantified by UV spectroscopy (NanoDrop, Thermo Scientific, Wilmington, USA). Xenopus laevis oocytes were acquired from EcoCyte Bioscience (Castrop-Rauxel, Germany). Oocytes were injected with 50 nL cRNA and currents were recorded after 2 days of incubation at 19°C. Currents were recorded at a sampling rate of 10 kHz using a TEVC amplifier (Dagan CA-1B; IL, USA), and borosilicate glass recording electrodes (Module Ohm, Herlev, Denmark), made with a DMZ Universal Puller (Zeitz Instruments, Martinsried, Germany) with a resistance of 0.5–1 MΩ when filled with 2 M KCl. Oocytes were superfused with Kulori (pH 7.4) solution containing NaCl 90 mM, KCl 4 mM, MgCl2 1 mM, CaCl2 1 mM, 4-(2-hydroxyethyl)-1-piperazineethanesulfonic acid 5 mM, and currents were elicited with the voltage protocols previously indicated (Skarsfeldt et al., [2016]), from a holding potential of −80 mV. […]
To assess the effect of BBP on other calcium-activated potassium channels (hBK, hSK3 WT, rSK3 H491N, and hIK), each individual current was first normalized to its cell size using membrane's capacitance (pA/pF) before statistical analysis. […] Statistical significance between saline and the effect of both BBP and the corresponding reference compound was determined for each channel using one-way ANOVA analysis. […]

For `c1cc(-c2nc3ccccc3[nH]2)nc(-c2nc3ccccc3[nH]2)c1` [BBP, 2,6-Bis(2-benzimidazolyl)pyridine], which IC50 (hSK1) is on record?
Its IC50 is 0.7 ± 0.2 µM.

What about the “Effect on Kv1.5 current” value (Kv1.5) of the same compound?
Its value is “did not have any effect; also recorded: did not significantly affect”.
